Assay results reported in paper PMC2783484 (Molecular and biochemical parasitology, 2009).
Read-outs that look alike come from different tables or passages of the source.

How the values were obtained:
PfENT1 [1] = target: T1, PfENT1 (Plasmodium falciparum, UniProt Q8IDM6); conditions: cited from earlier work
PfENT1 [2] = target: T1, PfENT1; experiment: Uptake competition vs [3H]hypoxanthine in PfENT1-expressing Xenopus oocytes; type: cell-based; conditions: for competition with uptake of 100 nM [3H]hypoxanthine: 2.5 and 10 mM competitor; for competition with uptake of 100 nM [3H]hypoxanthine / Ki: 10 min uptake; for Ki: one site fit, Cheng-Prusoff, mean ± SEM
P. falciparum = conditions: cited from earlier work; for concentration toxic to parasite growth: as sole purine source in culture
PfHGXPRT = conditions: read-out: Km for HGXPRT; cited from earlier work
PfENT1 [3] = target: T1, PfENT1; experiment: Uptake competition vs [3H]adenosine in PfENT1-expressing Xenopus oocytes; type: cell-based
intact parasites = conditions: read-out: Km for uptake in intact parasites; Quashie et al. (2008); cited from earlier work
PfENT1 [4] = target: T1, PfENT1; experiment: Time course of radiolabeled substrate uptake by PfENT1-expressing oocytes; type: cell-based; conditions: […] [3H] substrate
[5] = read-out: PfENT1 transport Km, Xenopus oocytes, Parker et al.
[6] = read-out: PfENT1 Km, Xenopus oocytes, Carter and coworkers
[7] = Ki, Competition vs. [3H]hypoxanthine, 100 nM [3H]hypoxanthine

T1 sequence (Q8IDM6 whole entry): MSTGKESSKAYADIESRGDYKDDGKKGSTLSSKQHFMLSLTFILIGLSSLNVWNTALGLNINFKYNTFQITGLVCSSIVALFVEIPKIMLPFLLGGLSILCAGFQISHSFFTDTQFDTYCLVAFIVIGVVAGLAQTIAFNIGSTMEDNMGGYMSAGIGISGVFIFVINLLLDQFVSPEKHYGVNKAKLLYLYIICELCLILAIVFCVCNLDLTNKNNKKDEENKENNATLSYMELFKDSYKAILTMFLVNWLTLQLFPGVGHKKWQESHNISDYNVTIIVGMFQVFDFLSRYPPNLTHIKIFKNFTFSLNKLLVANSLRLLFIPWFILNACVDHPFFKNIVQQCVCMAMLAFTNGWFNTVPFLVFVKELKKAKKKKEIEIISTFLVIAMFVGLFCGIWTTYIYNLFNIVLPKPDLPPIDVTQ

Nc1ncnc2nc[nH]c12 [adenine]
Km (PfENT1 [1]; [5]): 320 µM

Nc1ncnc2c(C3N[C@H](CO)[C@@H](O)[C@H]3O)c[nH]c12 (some centres unmarked) [Immucillin-A]
competition with uptake of 100 nM [3H]hypoxanthine (PfENT1 [2]): failed to compete

OC[C@H]1O[C@@H](n2cnc3c(O)ncnc32)[C@H](O)[C@@H]1O [inosine]
Km (PfENT1 [1]; [6]): 253 µM

Nc1nc2nc[nH]c2c(=O)[nH]1 [guanine]
concentration toxic to parasite growth (P. falciparum): > 50 µM | Km (PfHGXPRT): 0.3 µM

Nc1ncnc2c1c(I)cn2[C@@H]1O[C@H](CO)[C@@H](O)[C@H]1O [Iodotubercidin, 5′-iodotubercidin]
Ki (PfENT1 [2]; [7]): 54 ± 8 µM | Ki (PfENT1 [3]): 66 ± 15 µM | second site, fold higher apparent affinity (PfENT1 [3]; two-site fit vs [3H]adenosine): 1000 fold

Nc1ncnc2c1ccn2[C@@H]1O[C@H](CO)[C@@H](O)[C@H]1O [Tubercidin, 7-deazaadenosine]
Ki (PfENT1 [2]; [7]): 420 ± 110 µM | IC37, parasite growth inhibition (P. falciparum; in vitro culture in RPMI media supplemented with human serum): 0.4 to 0.7 µM | Ki (PfENT1 [3]): 590 ± 100 µM

CSC[C@H]1O[C@@H](n2ccc3c(N)ncnc32)[C@H](O)[C@@H]1O [MT-Tubercidin (10), 5′-methylthiotubercidin]
Ki (PfENT1 [2]; read-out: Ki, Competition vs. [3H]hypoxanthine, 100 nM [3H]hypoxanthine): 1100 µM

O=c1[nH]cnc2nc[nH]c12 [Hypoxanthine]
Km (intact parasites): 0.34 µM | block of [3H]hypoxanthine uptake (PfENT1 [2]; 2 mM unlabeled hypoxanthine, 100 nM [3H]hypoxanthine): ~ 90% | Ki (PfENT1 [2]; [7]): 300 ± 32 µM | Km (PfHGXPRT): 0.46 µM | Km (PfENT1 [1]; [5]): 410 µM

CSC[C@H]1N[C@@H](c2c[nH]c3c(=O)[nH]cnc23)[C@H](O)[C@@H]1O [MT-ImmH]
effect on malaria parasites during in vitro culture (P. falciparum): lethal

Nc1nc2c([C@@H]3N[C@H](CO)[C@@H](O)[C@H]3O)c[nH]c2c(=O)[nH]1 [Immucillin-G]
competition with uptake of 100 nM [3H]hypoxanthine (PfENT1 [2]): failed to compete

Nc1nc2c(ncn2[C@@H]2O[C@H](CO)[C@@H](O)[C@H]2O)c(=O)[nH]1 [guanosine]
concentration toxic to parasite growth (P. falciparum): > 50 µM

O=c1[nH]cnc2cc[nH]c12 [9-Deaza-hypoxanthine, 9-Deazahypoxanthine]
Ki (PfENT1 [2]; [7]): 710 ± 410 µM | Ki (PfENT1 [3]): 940 ± 270 µM

O=c1[nH]cnc2c([C@@H]3N[C@H](CO)[C@@H](O)[C@H]3O)c[nH]c12 [ImmH, Immucillin-H]
competition with uptake of 100 nM [3H]hypoxanthine (PfENT1 [2]): failed to compete | inhibition of parasite growth (P. falciparum; 10 μM immucillinH in the presence of 10 μM hypoxanthine): completely inhibited parasite growth

NC[C@H]1O[C@@H](n2cc(I)c3c(Cl)ncnc32)[C@H](O)[C@@H]1O [compound 1, 4-Chloro-5-iodo-7-(5-amino-5-deoxy-β-d-ribofuranosyl)pyrrolo[2,3-d]pyrimidine]
Ki (PfENT1 [2]; [7]): 3400 µM | increase of transport Ki compared to tubercidin (PfENT1 [2]; vs [3H]hypoxanthine): 8 fold | Ki (PfENT1 [3]): 1200 ± 300 µM

Nc1ncnc2c1ncn2[C@@H]1O[C@H](CO)[C@@H](O)[C@H]1O [Adenosine]
uptake per oocyte at 60 min (PfENT1 [4]): ~7 pmol | Km (PfENT1 [1]; [6]): 13 µM | Km (PfENT1 [1]; read-out: PfENT1 adenosine Km, Downie et al.): 1860 µM | Km (PfENT1 [1]; [5]): 320 µM

O=c1[nH]c(=O)c2[nH]cnc2[nH]1 [xanthine]
concentration toxic to parasite growth (P. falciparum): > 50 µM
